The text below walks through data of a melting point compilation (Tetko et al.; mined from patent text by program, amines drawn as free bases though some values may be those of a salt).

Non-standard residues stand in square brackets, D forms with d. Residues, ends and D or L forms follow the SMILES beside them. ξ: configuration not given here. *: point of attachment. Boc = CC(C)(C)OC(=O)*; ξA = CC(N)C(=O)O

The melting point is the temperature, or range, at which the solid turns liquid. The molecule `Cc1c(C(=O)Nc2ccc(OCC(C)(C)C)c(C#N)c2)cnn1C(C)(C)C` registered a melting point of 143 to 144 °C. The molecule `NC1CCN(c2cnccn2)CC1` yielded a melting point of 158 to 160 °C. Under `CCOC(=O)c1cn(Cc2ccccc2)nc1OCc1ccc(OCc2nc(-c3ccccc3)oc2C)c(OC)c1` stands 154 to 155 °C; under `CSCC(=O)N=C(SC)N(C)N=Cc1ccccc1`, 68 to 70 °C; under `CCCn1cc(C2CCC(=O)CC2)c2cc(C#N)ccc21`, 103 to 104 °C. The figure for `O=C(O)c1ccc(-c2ccc(C(=O)O)cc2-c2nc3ccccc3[nH]2)c(-c2nc3ccccc3[nH]2)c1` is above 400 °C; for `OCCc1ccc(-c2ccc(Cl)cc2)cc1` it is 113 to 115 °C. Under `C[C@H](Oc1c(I)c(C(=O)NC(CO)CO)c(I)c(C(=O)NC(CO)CO)c1I)C(N)=O` stands 110 °C. Molecule `CC(C)c1ccc2c(=O)cc(C(=O)O)[nH]c2c1` registered a melting point above 240 °C. Under `CCCCc1cn(CCc2cccs2)c(=O)n1Cc1ccc(-c2ccccc2-c2nnn[nH]2)nc1` stands 137 to 138 °C. Under `CN(C)c1c(C#N)cnc2c(NC(=O)c3c(Cl)cccc3Cl)cccc12` stands 227 to 228 °C; under `CSCC(=O)[C@H](COCc1ccccc1)NC(=O)[C@H](CC(C)C)NC(=O)OCc1ccccc1`, 58 to 70 °C. `CCOC(=O)C1=C(C)NN=C(C(=O)OC)C1c1ccccc1[N+](=O)[O-]` (centres undefined) displayed a melting point of 168 to 169 °C. Under `O=C(O)Cc1c(Cl)cnc2c(NC(=O)c3c(Cl)cccc3Cl)cccc12` stands 257 to 259 °C; under `CCOC(=O)c1ccccc1S(N)(=O)=O`, 122 to 124 °C. The figure for `C[C@H](NC(=O)[C@H](Cc1ccccc1)NC(=O)CS)C(=O)O` is 172 to 174 °C; for `COc1ccc(C=CC(=O)O)cc1-c1cc2c(cc1OCCCO)C(C)(C)CCC2(C)C` it is 198 to 200 °C.

Take `COC(=O)c1cc(-c2nc(CCl)c(C)o2)ccc1C`: the melting point was 89 to 90 °C. Under `CSC(=C[N+](=O)[O-])NCCCCc1c[nH]cn1` stands 157 to 158 °C; under `O=C(NC(CO)C(=O)N1CCN(CCCc2ccccc2)CC1)OCc1ccccc1` (centres undefined), 95 to 97 °C; under `COOC(=O)c1cc2c(Cl)cn(C)c2nc1C(=O)OOC`, 129 to 137 °C. The figure for `COc1ccc(C(=O)C=Cc2ccc(C(C)(C)C)cc2)cc1` is 114 to 116 °C. Under `COc1ccc(N2C(=O)N(c3ccccc3)c3nc(Nc4ccccc4)ncc3C2C)cc1` (centres undefined) stands 222 to 234 °C. Consider `O=C(NC(=O)C(Br)CBr)Nc1ccc(Cl)cc1` (centres undefined), for which the melting point fell in the range of 162 to 163 °C.

`COC(=O)CCOc1ccccc1CNC(=O)C1Cc2ccccc2N1S(=O)(=O)c1ccc(-c2cccc(C(F)(F)F)c2)cc1` (centres undefined) showed a melting point of 131 °C.

On to `CC(=O)C1C(=O)CC(C#N)CC1=O` (centres undefined), for which the melting point lay in the range of 66 to 69 °C. Under `COc1ccc(C(CBr)(OC)OC)cc1` stands 52 to 53 °C; under `CCC1(C)CC(=O)C(C(=O)Nc2cccc(C(F)(F)F)c2)C(=O)C1` (centres undefined), 81 to 82 °C; under `N#Cc1cc(-c2ccccc2)[nH]c1Sc1ccncc1`, 172 to 174 °C. Regarding `NC(=O)c1csnc1-c1cccc(C(F)(F)F)c1`, the melting point was 141 to 142 °C.

Regarding `COc1cc2cc(CO)c(CO)c(-c3ccnc(-n4c(=O)cc(C(=O)O)c5ccccc54)c3)c2cc1OC`, the melting point is above 250 °C. Under `CCCCc1nn(-c2cc(NC(=O)CC)ccc2Cl)c(=O)n1Cc1ccc(-c2ccccc2S(=O)(=O)NC(=O)c2occ(Cl)c2Cl)cc1` stands 223 to 226 °C; under `Cc1ccc(S(=O)(=O)N2CCC(C#N)(c3ccc(Cl)cc3Cl)CC2)cc1`, 145 °C. `COc1ccc(CNc2ccc(C#N)cc2)cc1F` displayed a melting point of 108 °C.

Take `CCCSC1(C(F)(F)F)C=NC(=O)Nc2ccc(Cl)cc21` (centres undefined): the melting point is 156 to 157 °C. Under `COC(=O)C(O)c1cc(F)cc(F)c1` (centres undefined) stands 61.8 °C; under `COC(=O)c1cc(N)cc(C=NO)c1`, 160 to 162 °C; under `CC(C)(c1ccc(C(=O)Nc2cn3cc(Cl)ccc3n2)cc1)c1nnn[nH]1`, 266 to 267 °C. The figure for `CC(=Cc1ccccc1)c1ccc2c(c1)C(C)(C)C(O)C2(C)C` (centres undefined) is 63 to 67 °C. The figure for `Cc1nc(NC(=O)Cc2ccsc2)c(Br)c(C)c1Br` is 157 °C; for `CCOC(=O)C(C(=O)C(C)C)C1c2ccccc2C(=O)N1c1ccc2ccc(Cl)nc2n1` (centres undefined) it is 146 °C; for `COc1cc(C(C)C)c2c(c1)S(=O)(=O)N(COc1cc(C(F)(F)F)nn1-c1cccc(C(F)(F)F)n1)C2=O` it is 149 to 150 °C.

With `O=c1nc(-c2ccccn2)sc2ccc(OCc3ccccc3)cc12`, the melting point was 198 to 199 °C.

Turning to `NC1=c2c3c(ccc2=CCS1)CCCN3`, the melting point lay within 214 to 216 °C.

In turn, `COc1cc2c(c3c1OC(C)(C)C3)C(c1ccc(NC(=O)c3cccnc3)cc1)=NC(C)(C)C2` came in with a melting point of 130 to 137 °C. The figure for `COc1ccc(C2C(N=[N+]=[N-])C(=O)N2c2ccc(C(=O)O)cc2)cc1` (centres undefined) is 127 to 129 °C; for `CCn1cc(-c2ccc([C@H](C)N3CC[C@](CC(C)(C)O)(c4ccccc4)OC3=O)cc2)ccc1=O` it is 167 to 168 °C. The figure for `COc1ccc2c(CN(C)C)cc(=O)oc2c1` is 97 °C; for `CC(C)C[C@H](NC(=O)c1ccc2c(c1)Nc1ccccc1S2)C(=O)N1CCC2(C1)OCCO2` it is 75 to 77 °C. Under `Cc1cccc(Cl)c1C(=O)N[C@@H](Cc1ccc(-c2c(C(F)(F)F)cc(C)n(C)c2=O)cc1)C(=O)O` stands 220 to 223 °C. As to `Nc1nc(N)c2cc(Cc3ccc(Cl)c(Cl)c3)ccc2n1`, the melting point was 150 to 151 °C.

`O=C(O)CCCCN(C(=O)c1ccc(Cl)cc1)c1ccccc1-c1ccccc1` gave a melting point of 170 to 173 °C. Under `CC(C)n1nc(C(=O)O)c2ccccc21` stands 160 to 163 °C.

`CS(=O)(=O)Nc1ccc2c(c1)C(=NO)CC1(CCN(CCc3ccccc3)CC1)O2` had a melting point of 95 to 99 °C. Molecule `Cc1nn(Cc2ccccc2)c(C)c1CC(=O)O` displayed a melting point of 119 to 121 °C. Under `O=C(O)Cc1ccc(C(=O)c2ccc(Cl)cc2)s1` stands 165 °C; under `CCCCCP(=S)(CCCCC)NP(=S)(CCCCC)CCCCC`, 59 to 63.5 °C. The figure for `COC(=O)CNC(=O)C(C)NC(=O)CNC(=O)OC(C)(C)C` (stereo not drawn) (Boc-Gly-[ξA]-Gly-OMe) is 98 to 100 °C; for `CCOC(=O)c1c(-c2ccc(F)cc2)c2ccccc2[nH]c1=O` it is 204 to 206 °C.

The molecule `C/C(=C\C(C)O)c1ccc(C2CCCCC2)cc1` (centres undefined) returned a melting point of 67.5 to 68 °C.

In the case of `COC(=O)c1cc(OP(=S)(OC)OC)c(C(=O)OC)s1`, the melting point came to 71 °C.

Turning to `Cc1ccc(C#N)c(OC(C)(C)C=O)c1`, the melting point fell in the range of 57 to 59 °C.

`Cc1cc(-n2cnn(Cc3ccc(F)cc3)c2=O)sc1C(=O)NCc1ncco1` returned a melting point of 163 to 165 °C.

As to `CN(CC(=O)c1ccc(N2CCOCC2)cc1)C(=O)OC(C)(C)C`, the melting point is 87 to 89 °C. The figure for `COc1ccc(CN2C(=O)N([C@H](C)c3ccccc3)[C@H]3COC(=O)[C@H]32)cc1` is 146 °C; for `N#CC(=NOCF)C(N)=O` it is 124 to 125 °C.

The molecule `COC(=O)CCc1ccc(CCNC(=O)c2cc(Cl)ccc2OC)cc1` gave a melting point of 58 to 61 °C. Molecule `Ic1ccc(SSc2ccc(I)c3ccccc23)c2ccccc12` came in with a melting point of 129 to 131 °C.

Consider `CC1CCN(CCCC(=O)c2ccc3c(c2)C(=O)c2cc(C(=O)CCCN4CCC(C)CC4)ccc2-3)CC1`, for which the melting point lay within 178 to 180 °C. The figure for `CCC(=O)N1CCc2cc(O)c(OC)cc2C1` is 116 to 118 °C. The figure for `O=C(O)CC1Cc2ccc(O)cc2OC1=O` (centres undefined) is 174 to 175 °C; for `CC1(CCC(N)=O)C(=O)CCC1=O` it is 159 to 162 °C; for `C#CCn1c(=O)n(-c2ccccc2)c2ccccc21` it is 145 to 147 °C.

Take `C=CCOc1cc(C(=O)CCCCCCCCCCCCC)c(O)c(C)c1C`: the melting point lay in the range of 65 to 66 °C. The figure for `OCc1cnn(-c2c(Cl)cc(C(F)(F)F)cc2Cl)n1` is 87 to 88 °C. The figure for `Cc1c(C#N)c(=O)n(-c2cc(C(=O)OC(C)C)c(Cl)cc2F)c(=O)n1C` is 171 to 173 °C; for `CC1(C)CCC(C)(C)c2cc(-c3cc(-c4ccc(C(=O)O)cc4)ccc3OCCCCCC(=O)O)ccc21` it is 245 °C. As for `COC(=O)c1ccc(C)c(-n2c(C)cc(OCc3ccccc3CNC(=O)Nc3cc(C(C)(C)C)nn3-c3ccc(O)c(Cl)c3)c(Cl)c2=O)c1`, the melting point lay in the range of 185 to 186 °C.

Consider `CC(=O)N1[C@@H](c2ccc(Cl)cc2)SC(C)(C)[C@@H]1C(=O)O`, for which the melting point is 197 to 198 °C.

Turning to `Cc1ccc(C(=O)NCCN(C)C)cc1-n1c(C)cc(OCc2ccc(F)cc2CNC(=O)Nc2cc(C(C)(C)C)nn2-c2ccc(Cl)c(O)c2)c(Cl)c1=O`, the melting point was 177 to 178 °C. Under `Cc1ccc(C(C#N)=C2CCCCC2)cc1` stands 50.5 to 51.3 °C; under `CC12CCC(C(=NO)C1=NN)C(C)(C)O2` (centres undefined), 138 to 142 °C; under `Nc1ncnc2c1c(Cl)cn2COC(O)CCO` (centres undefined), 175 to 176 °C. In the case of `CC(C)c1nnc(-c2ccc(-c3ccccc3)cc2)n1-c1ccccc1F`, the melting point is 201 to 204 °C. Under `Cc1cncn1-c1ccc(O)cc1` stands 256 °C; under `Cn1ccc(-c2cc(OC(F)F)n(-c3ccc(NC(=O)c4ccncc4F)cc3)n2)c1`, 135 to 136 °C.

`COC(=O)c1sc2cc(OC)ccc2c1C` yielded a melting point of 118 to 120 °C. The figure for `CCCCOC(=O)c1cc(=NS(=O)(=O)c2ccccc2)c2c(Cl)cc(Cl)cc2[nH]1` is 94 to 95 °C; for `CCOC(=O)C(=CN(CC)c1ccc(C=O)s1)C(=O)OCC` it is 45 °C.
